Peptide text beside a SMILES is read from it. * marks the point of attachment. NOTA = O=C(O)CN1CCN(CC(=O)O)CCN(CC(=O)*)CC1; AEEEA = NCCOCCOCCOCC(=O)O
Columns and labels:
A549-PD-L2 cell lines = assay: Cell uptake assay; format: cell-based; conditions: A549-PD-L2 cells, n = 5; for cell uptake rate: mean ± SD
Procedure: Cell uptake assays were conducted to measure the uptake of [^68Ga]Ga-HN11-1 and [^68Ga]Ga-HN11-2 in A549 and A459-PD-L2 cell lines following incubation periods of 15, 30, 60, and 90 min. Blocking studies were performed by coincubating cells with an excess of precursor (HN11-1 / HN11-2), and then the cell uptakes of [^68Ga]Ga-HN11-1 and [^68Ga]Ga-HN11-2 were performed in A459-PD-L2 cell lines after 60 min of incubation. The experiment details are provided in the SI.
All tumor cells (1 × 10^6 per well) were seeded in two 24 - well plates, incubated for 24 h and then added with […] of [^68Ga]Ga-HN11-1 or [^68Ga]Ga-HN11-2 per well. After 15, 30, 60 and 90 min of uptake, the cells were separated from the medium, washed with 500 μL of cold PBS for three times and dissolved with 1 M NaOH. At different time points, these cells were collected and counted by using a γ-counter (WIZARD 2480, Pekin Elmer). For in vitro blocking experiments, cells were co-incubated with 10 μg of cold HN11-1 or HN11-2 precursor. After incubation, the cells were washed, collected and measured with a γ-counter, either. The IC50 values of [^68Ga]Ga-HN11-1 or [^68Ga]Ga-HN11-2 were determined using GraphPad Prism 8.0.2 software, respectively.

[1] = Pharmacokinetics in blood; format: in vivo; conditions: healthy BALB/C mouse, i.v. 5.55 MBq, noncompartmental model, Phoenix WinNonlin 8.1
Procedure: The static PET/CT imaging in A549 and A549-PD-L2 xenograft models after injection of 5.55 to 7.4 MBq (150 to 200 μCi) of [^68Ga]Ga-HN11-1 or [^68Ga]Ga-HN11-2 were acquired at 60 min. In the [^68Ga]Ga-HN11-1 + block or [^68Ga]Ga-HN11-2 + block groups, the xenograft models underwent pretreatment via intravenous injection of HN11-1 or HN-2 (10 mg/kg) before PET/CT imaging. Then, ROIs were delineated for each group. After imaging, tumor tissues from both the A549 and A459-PD-L2 xenograft tumors were extracted, and the PD-L2 expression was tested by IHC. For the pharmacokinetics study, healthy BALB/C mouse received an intravenous injection of 5.55 MBq (150 μCi) of [^68Ga]Ga-HN11-1 and [^68Ga]Ga-HN11-2. Measure the activity of blood samples (%ID/g, mean ± SD) at the corresponding time points, and the time-activity curve was plotted. Subsequently, pharmacokinetic parameters were tested using the noncompartmental model in Phoenix WinNonlin 8.1 software (Certara, USA).

## CC[C@H](C)[C@H](NC(=O)[C@H](CCCNC(=N)N)NC(=O)CNC(=O)[C@H](CCC(=O)O)NC(=O)[C@H](CC(N)=O)NC(=O)[C@H](Cc1ccc(O)cc1)NC(=O)[C@H](CCCNC(=N)N)NC(=O)[C@H](Cc1ccc(O)cc1)NC(=O)[C@H](Cc1c[nH]cn1)NC(=O)COCCOCCOCCNC(=O)CN1CCN(CC(=O)O)CCN(CC(=O)O)CC1)C(=O)N[C@@H](CCCNC(=N)N)C(=O)N[C@@H](CC(N)=O)C(=O)O [[^68Ga]Ga-HN11-1, metal not drawn] ({NOTA-AEEEA}-HYRYNEGRIRN-OH)
A549-PD-L2 cell lines; 30 min incubation, γ-counter
  cell uptake rate: 4.51 ± 0.04%
A549-PD-L2 cell lines; 60 min, with excess (10 μg) of cold HN11-1 / HN11-2 precursor
  cell uptake, block group: 1.43 ± 0.13%
A549-PD-L2 cell lines; 60 min incubation
  cell uptake rate: 4.87 ± 0.28%
[1]
  half-life in blood: 13.37 min

Reference: article PMC11528066, “Noninvasive Monitoring of Programmed Death-Ligand 2 Expression with Positron Emission Tomography using ^68Ga-labeled Peptide Antagonist in Preclinical and Exploratory Human Studies” (Research, 2024)
